Experimental data reported in patent US20070275968A1, “Substituted Biphenyl Derivative” (priority 2004, published 2007).

SMILES: Cc1cccc(-c2[nH]c(C(C)C)nc2-c2cccc(-c3ccc(NC(=O)C(C)(C)O)cc3)c2)n1 [Example 34, 2-Hydroxy-N-{3′-[2-isopropyl-5-(6-methylpyridin-2-yl)-1H-imidazol-4-yl]-1,1′-biphenyl-4-yl}-2-methylpropanamide]
- melting point: 123 to 135 °C

SMILES: Cc1cccc(-c2[nH]c(C(C)C)nc2-c2cccc(-c3ccc(C(N)=O)cn3)c2)n1 [Example 36, 6-{3-[2-Isopropyl-5-(6-methylpyridin-2-yl)-1H-imidazol-4-yl]phenyl}nicotinamide]
- melting point: 138 to 144 °C

SMILES: Cc1cccc(-c2nc(C(C)C)[nH]c2-c2cccc(-c3ccc(S(N)(=O)=O)cc3)c2)n1 [Example 37, 3′-[2-Isopropyl-4-(6-methylpyridin-2-yl)-1H-imidazol-5-yl]-1,1′-biphenyl-4-sulfonamide]
- melting point: 255 to 258 °C

SMILES: CNS(=O)(=O)c1ccc(-c2cccc(-c3nc(C(C)C)[nH]c3-c3cccc(C)n3)c2)cc1 [Example 38, 3′-[2-Isopropyl-5-(6-methylpyridin-2-yl)-1H-imidazol-4-yl]-N-methyl-1,1′-biphenyl-4-sulfonamide]
- melting point: 96 to 100 °C

SMILES: Cc1cccc(-c2[nH]c(C(C)C)nc2-c2cccc(-c3ccc(S(=O)(=O)N(C)C)cc3)c2)n1 [Example 39, 3′-[2-Isopropyl-5-(6-methylpyridin-2-yl)-1H-imidazol-4-yl]-N,N-dimethyl-1,1′-biphenyl-4-sulfonamide]
- melting point: 93 to 96 °C

SMILES: Cc1cccc(-c2[nH]c(C(C)C)nc2-c2cccc(-c3ccc(S(=O)(=O)N4CCOCC4)cc3)c2)n1 [Example 40, 4-({3′-[2-Isopropyl-5-(6-methylpyridin-2-yl)-1H-imidazol-4-yl]-1,1′-biphenyl-4-yl}sulfonyl)morpholine]
- melting point: 88 to 92 °C

SMILES: Cc1cccc(-c2[nH]c(C(C)C)nc2-c2cccc(-c3ccc(S(=O)(=O)N4CCN(C)CC4)cc3)c2)n1 [Example 41, 1-({3′-[2-Isopropyl-5-(6-methylpyridin-2-yl)-1H-imidazol-4-yl]-1,1′-biphenyl-4-yl}sulfonyl)-4-methylpiperazine]
- melting point: 110 to 116 °C

SMILES: Cc1cccc(-c2[nH]c(C(C)C)nc2-c2cccc(-c3cccc(S(N)(=O)=O)c3)c2)n1 [Example 42, 3′-[2-Isopropyl-5-(6-methylpyridin-2-yl)-1H-imidazol-4-yl]-1,1′-biphenyl-3-sulfonamide]
- melting point: 123 to 126 °C

SMILES: Cc1cccc(-c2[nH]c(C(C)C)nc2-c2cccc(-c3ccccn3)c2)n1 [Example 43, 2-[2-Isopropyl-4-(3-pyridin-2-ylphenyl)-1H-imidazol-5-yl]-6-methylpyridine]
- melting point: 97 to 100 °C

SMILES: Cc1cccc(-c2[nH]c(C(C)C)nc2-c2cccc(-c3ccc(C(=O)NC4CCOCC4)cc3)c2)n1 [Example 44, N-(Tetrahydropyran-4-yl)-4-{3-[2-isopropyl-5-(6-methylpyridin-2-yl)-1H-imidazol-4-yl]-phenyl}benzamide]
- melting point: 140 °C

SMILES: Cc1cccc(-c2[nH]c(CC(C)C)nc2-c2cccc(-c3ccc(C(=O)NC4CCOCC4)cc3)c2)n1 [Example 45, N-(Tetrahydropyran-4-yl)-4-{3-[2-isobutyl-5-(6-methylpyridin-2-yl)-1H-imidazol-4-yl]phenyl}benzamide]
- melting point: 126 to 129 °C

SMILES: Cc1cccc(-c2[nH]c(C3CC3)nc2-c2cccc(-c3ccc(C(=O)NC4CCOCC4)cc3)c2)n1 [Example 46, N-(Tetrahydropyran-4-yl)-4-{3-[2-cyclopropyl-5-(6-methylpyridin-2-yl)-1H-imidazol-4-yl]phenyl}benzamide]
- melting point: 127 to 128 °C

SMILES: Cc1cccc(-c2[nH]c(C(C)C)nc2-c2cccc(-c3ccc(C(=O)NN4CCOCC4)cc3)c2)n1 [Example 51, N-(Morpholin-4-yl)-4-{3-[2-isopropyl-5-(6-methylpyridin-2-yl)-1H-imidazol-4-yl]-phenyl}benzamide]
- melting point: 145 °C

SMILES: Cc1cccc(-c2nc(C(C)C)[nH]c2-c2cccc(-c3ccc(C(=O)N4CC[S+]([O-])CC4)cc3)c2)n1 [Example 56, 4-({3′-[2-Isopropyl-4-(6-methylpyridin-2-yl)-1H-imidazol-5-yl]-1,1′-biphenyl-4-yl}carbonyl)thiomorpholine 1-oxide]
- melting point: 136 to 140 °C

SMILES: Cc1cccc(-c2nc(C(C)C)[nH]c2-c2cccc(-c3ccc(C(=O)N4CCS(=O)(=O)CC4)cc3)c2)n1 [Example 57, 4-({3′-[2-Isopropyl-4-(6-methylpyridin-2-yl)-1H-imidazol-5-yl]-1,1′-biphenyl-4-yl}carbonyl)thiomorpholine 1,1-dioxide]
- melting point: 141 to 145 °C

SMILES: Cc1cccc(-c2[nH]c(C(C)C)nc2-c2ccc(F)c(-c3ccc(S(C)(=O)=O)cc3)c2)n1 [Example 61, 2-{4-[6-Fluoro-4′-(methylsulfonyl)-1,1′-biphenyl-3-yl]-2-isopropyl-1H-imidazol-5-yl}-6-methylpyridine]
- melting point: 113 to 115 °C

SMILES: Cc1cccc(-c2nc(N)sc2-c2cccc(-c3ccc(S(C)(=O)=O)cc3)c2)n1 [Example 62, 4-(6-Methylpyridin-2-yl)-5-[4′-(methylsulfonyl)-1,1′-biphenyl-3-yl]-1,3-thiazol-2-amine]
- melting point: 107 to 109 °C

SMILES: CCc1cccc(-c2[nH]c(C(C)C)nc2-c2cccc(-c3ccc(S(C)(=O)=O)cc3)c2)n1 [Example 64, 2-Ethyl-6-{2-isopropyl-4-[4′-(methylsulfonyl)-1,1′-biphenyl-3-yl]-1H-imidazol-5-yl}pyridine]
- melting point: 108 to 110 °C

SMILES: Cc1cccc(-c2[nH]c(C(C)C)nc2-c2ccc(F)c(-c3ccc(C(=O)NN4CCOCC4)cc3)c2)n1 [Example 66, N-(Morpholin-4-yl)-4-{2-fluoro-5-[2-isopropyl-5-(6-methylpyridin-2-yl)-1H-imidazol-4-yl]phenyl}benzamide]
- melting point: 153 to 155 °C

SMILES: Cc1cccc(-c2[nH]c(C(C)C)nc2-c2cccc(-c3ccc(NC(=O)NN4CCOCC4)cc3)c2)n1 [Example 67, N-{3′-[2-Isopropyl-5-(6-methylpyridin-2-yl)-1H-imidazol-4-yl]-1,1′-biphenyl-4-yl}-N′-morpholin-4-ylurea]
- melting point: 146 to 148 °C

SMILES: Cc1cccc(-c2[nH]c(C(C)C)nc2-c2cccc(-c3ccc(C)[nH]3)c2)n1 [Example 69, 2-{2-Isopropyl-4-[3-(5-methyl-1H-pyrrol-2-yl)phenyl]-1H-imidazol-5-yl}-6-methylpyridine]
- melting point: 128 to 130 °C

SMILES: Cc1cccc(-c2nc(C(C)C)[nH]c2-c2cccc(-c3cnn(C)c3)c2)n1 [Example 70, 2-{2-Isopropyl-5-[3-(1-methyl-1H-pyrazol-4-yl)phenyl]-1H-imidazol-4-yl}-6-methylpyridine]
- melting point: 84 to 86 °C

SMILES: Cc1cccc(-c2[nH]c(C(C)C)nc2-c2cccc(-c3ccc(NS(C)(=O)=O)cc3F)c2)n1 [Example 73, N-{2-Fluoro-3′-[2-isopropyl-5-(6-methylpyridin-2-yl)-1H-imidazol-4-yl]-1,1′-biphenyl-4-yl}methanesulfonamide]
- melting point: 179 to 184 °C

SMILES: Cc1cccc(-c2[nH]c(C(C)C)nc2-c2cccc(-c3ccc(NS(=O)(=O)C4CC4)cc3F)c2)n1 [Example 74, N-{2-Fluoro-3′-[2-isopropyl-5-(6-methylpyridin-2-yl)-1H-imidazol-4-yl]-1,1′-biphenyl-4-yl}cyclopropanesulfonamide]
- melting point: 124 to 128 °C
